Results on 62 compounds are retold here after ChEMBL document CHEMBL3301458, “MMV Malaria Box hERG screening”.

Series [1] has as its target T1, hERG (Kv11.1, KCNH2) (Homo sapiens, UniProt Q12809). The experiment in a line: in vitro.
Description: MMV: Malaria Box compounds were tested for inhibition of the human ether a go-go related gene (hERG), Kv11.1 channel, using IonWorks 384-well patch clamp electrophysiology at 1.1uM (3 independent assay plates up to 12 cells per concentration).
Series [2] addresses T1, hERG (Kv11.1, KCNH2). Put plainly: in vitro. This is another data set of the same source.
Description: MMV: Malaria Box compounds were tested for inhibition of the human ether a go-go related gene (hERG), Kv11.1 channel, using IonWorks 384-well patch clamp electrophysiology at 11.1uM (3 independent assay plates up to 12 cells per concentration).

The structures appear in SMILES notation. Active and inactive are the calls of the source. No rule for the calls is given here.

T1 sequence (Q12809 whole entry): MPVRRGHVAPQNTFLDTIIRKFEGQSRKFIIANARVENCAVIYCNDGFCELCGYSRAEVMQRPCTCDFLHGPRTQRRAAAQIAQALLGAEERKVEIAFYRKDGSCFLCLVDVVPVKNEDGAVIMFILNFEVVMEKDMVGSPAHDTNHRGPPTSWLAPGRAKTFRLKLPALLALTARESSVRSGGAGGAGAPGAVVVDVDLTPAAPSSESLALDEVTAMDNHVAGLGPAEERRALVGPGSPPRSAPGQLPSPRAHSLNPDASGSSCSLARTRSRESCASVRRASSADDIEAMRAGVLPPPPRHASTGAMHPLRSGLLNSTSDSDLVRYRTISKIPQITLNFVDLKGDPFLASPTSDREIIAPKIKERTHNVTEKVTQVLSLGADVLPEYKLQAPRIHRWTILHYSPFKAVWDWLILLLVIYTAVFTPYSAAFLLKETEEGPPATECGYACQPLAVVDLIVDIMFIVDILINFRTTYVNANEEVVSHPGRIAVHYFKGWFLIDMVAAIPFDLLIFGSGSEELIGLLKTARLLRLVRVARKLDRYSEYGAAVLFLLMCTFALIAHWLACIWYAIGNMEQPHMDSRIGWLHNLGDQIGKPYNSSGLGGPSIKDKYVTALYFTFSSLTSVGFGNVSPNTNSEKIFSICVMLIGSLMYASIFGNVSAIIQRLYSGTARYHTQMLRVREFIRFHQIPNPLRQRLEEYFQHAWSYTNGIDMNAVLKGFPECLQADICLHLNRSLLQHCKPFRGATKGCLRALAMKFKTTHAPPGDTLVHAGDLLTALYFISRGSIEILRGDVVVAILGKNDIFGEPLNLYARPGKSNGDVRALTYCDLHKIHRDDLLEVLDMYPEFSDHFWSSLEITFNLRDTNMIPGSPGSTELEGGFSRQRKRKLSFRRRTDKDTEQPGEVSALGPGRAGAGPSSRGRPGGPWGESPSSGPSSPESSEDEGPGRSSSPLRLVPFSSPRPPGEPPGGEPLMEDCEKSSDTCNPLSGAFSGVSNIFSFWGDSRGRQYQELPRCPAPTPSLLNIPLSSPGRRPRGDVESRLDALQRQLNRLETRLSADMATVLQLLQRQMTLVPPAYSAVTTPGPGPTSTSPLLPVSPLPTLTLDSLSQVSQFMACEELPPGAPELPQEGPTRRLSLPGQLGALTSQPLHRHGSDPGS

For `COc1ccc(-c2cc3c(nn2)-c2ccccc2C3=O)cc1`, the inhibition (in general, the change of the read-out against control, counted positive when it falls) at 1.1 µM in series [1] was -9%. The inhibition at 11.1 µM in series [2] is -7% (inactive).
The matching figures for `Cc1ccc(-c2cc3c(nn2)-c2ccccc2C3=O)cc1`: 14% and 50% (active).
`O=C1c2ccccc2-c2nnc(-c3ccc(Br)cc3)cc21`: the inhibition at 1.1 µM in series [1] is -3%. In series [2], the inhibition at 11.1 µM is 2% (inactive).
The matching figures for `Oc1ccccc1CN1CCC2(CCCN(Cc3ccccc3F)C2)C1` (centres undefined): 1% and 59% (active).
In the same order, the values of `COc1cccc(O)c1CN1CCC2(CCCN(Cc3ccc(F)cc3)C2)C1` (centres undefined) are 0% and 86% (active).
In the same order, the values of `CCOC(=O)C1=C(C)N=c2sc(=Cc3cc(Cl)ccc3O)c(=O)n2C1c1ccc(OC)cc1` (centres undefined) are 2% and 2% (inactive).
For `COc1ccc(-c2nc(NC(=O)CS(=O)(=O)c3ccc(F)cc3)sc2C)cc1`, in series [1], the inhibition at 1.1 µM came to 7%. In addition, the inhibition at 11.1 µM in series [2] was 69% (active).
The matching figures for `Cc1nc2ccccc2c(O)c1CC=C(Cl)Cl`: -1% and -2% (inactive).
In the same order, the values of `FC(F)(F)c1ccc(Nc2nnnc3ccccc23)cc1` are -4% and -2% (inactive).
In the same order, the values of `CCC(C)NCC(O)(c1ccc(Cl)cc1)c1ccc(Cl)cc1` (centres undefined) are 24% and 89% (active).
In the case of `Cc1ccc(N2C(=O)C3C(C2=O)C2(c4ccccc4)C(=O)C3(c3ccccc3)C(c3ccccc3)=C2c2ccccc2)cc1` (centres undefined), the inhibition at 1.1 µM in series [1] is 10%. Besides, the inhibition at 11.1 µM in series [2] is -3% (inactive).
In the same order, the values of `COc1ccc(CN2CCCC(C(=O)c3ccc(C(F)(F)F)cc3)C2)c(O)c1` (centres undefined) are 58% and 100%.
In the same order, the values of `CCOC(=O)c1cn(CC)c2cc(N(C)CCc3ccc(OC)c(OC)c3)c(F)cc2c1=O` are 3% and 34%.
In the same order, the values of `O=C(CCl)NCCOc1ccc(Cl)cc1Cl` are 1% and 62% (active).
For `O=C(NC1CCCCC1)C(c1cccs1)N(CCc1ccccc1)C(=O)c1ccco1` (centres undefined), the inhibition at 1.1 µM in series [1] is 13%. In addition, the inhibition at 11.1 µM in series [2] was 53% (active).
In the same order, the values of `COc1ccc(CCN2CCC(CN(C)Cc3cnn(-c4ccccc4)c3)CC2)cc1` are 41% and 99% (active).
In the same order, the values of `COc1ccc(C(=O)NC(c2ccc(Cl)cc2Cl)c2cc(Cl)c3cccnc3c2O)cc1` (centres undefined) are -3% and -12% (inactive).
The matching figures for `O=C(NC(c1ccccc1)c1ccc2cccnc2c1O)c1ccccc1` (centres undefined): 1% and 17% (inactive).
`COCCNC(=O)c1ccc(OC2CCN(Cc3ccc(F)c(F)c3)CC2)c(Cl)c1`: the inhibition at 1.1 µM in series [1] came out at 7%. Moreover, the inhibition at 11.1 µM in series [2] is 68% (active).
In the same order, the values of `COc1ccc(C2=C(c3ccc(OC)cc3)C3(c4ccccc4)C(=O)C2(c2ccccc2)C2C(=O)N(c4ccc(C)cc4)C(=O)C23)cc1` (centres undefined) are -8% and 6% (inactive).
In the same order, the values of `O=C(NC1CCCC1)c1ccc(N2CCC(NCc3cccc(C(F)(F)F)c3)CC2)cc1` are 76% and 101%.
In the same order, the values of `CC(C)=CCN1CCC(C(=O)Nc2ccc(-c3nc4ccccc4[nH]3)cc2)CC1` are 0% and 29%.
With `O=C(CCc1ccco1)NC1CCN(CC2(c3ccc(Cl)cc3)CCC2)CC1`, the inhibition at 1.1 µM in series [1] was 10%. In addition, the inhibition at 11.1 µM in series [2] was 65% (active).
In the same order, the values of `Nc1ccc(-c2nc3cc(Cc4ccc5[nH]c(-c6ccc(N)cc6)nc5c4)ccc3[nH]2)cc1` are 12% and 21% (inactive).
In the same order, the values of `COc1ccc(CNC2CCN(c3ccc(NC(=O)c4cccc(Cl)c4)cc3)CC2)cc1OC` are 84% and 102%.
The matching figures for `COCCN(C(=O)Cc1cccs1)C(C(=O)NCc1ccc(OC)cc1)c1ccc(C(C)C)cc1` (centres undefined): 11% and 52% (active).
As to `N=c1c2ccccc2nnn1-c1cccc(C(F)(F)F)c1`, in series [1], the inhibition at 1.1 µM was -3%. Moreover, the inhibition at 11.1 µM in series [2] is 11% (inactive).
The matching figures for `Cc1ccc(OCCCCCCNCCO)c(C)c1`: -6% and 21% (inactive).
In the same order, the values of `FC(F)(F)c1cccc(CNC2CCN(CCc3ccccc3)CC2)c1` are 4% and 97% (active).
The matching figures for `COc1ccccc1CNC(=O)CCn1c(=O)[nH]c2ccccc2c1=O`: -6% and 19% (inactive).
On to `OC(Cn1nnc2ccccc21)Cn1c2ccc(Br)cc2c2cc(Br)ccc21` (centres undefined), for which the inhibition at 1.1 µM in series [1] came out at 21%. For the same compound, the inhibition at 11.1 µM in series [2] is 17% (inactive).
In the same order, the values of `O=C(Nc1ccc(Cl)cc1)N1CCN(c2ccc3nncn3n2)CC1` are 0% and 58% (active).
In the same order, the values of `CN(C)c1ccc(-c2nc3cc(N)ccc3[nH]2)cc1` are 14% and 36%.
The matching figures for `Cc1ccc2cc3c(N)c4c(C)ccc(C)c4nc3nc2c1`: 16% and 60% (active).
As to `O=C(CSc1ccc2nnc(-c3cccc(F)c3)n2n1)Nc1ccc2c(c1)OCO2`, in series [1], the inhibition at 1.1 µM stood at 5%. Further, in series [2], the inhibition at 11.1 µM is 3% (inactive).
In the same order, the values of `CCCCNCC(O)(c1ccc(Cl)cc1)c1ccc(Cl)cc1` are 30% and 95% (active).
On to `CCCC(c1nnnn1C1CCCCC1)N1CCN(C(=O)c2ccco2)CC1` (centres undefined), for which the inhibition at 1.1 µM in series [1] is 3%. In addition, the inhibition at 11.1 µM in series [2] is 52% (active).
Consider `Cc1ccc(CN2CCC(C(=O)Nc3ccc(-c4cc5ccccc5[nH]4)cc3)CC2)o1`, for which, in series [1], the inhibition at 1.1 µM is 9%. The inhibition at 11.1 µM in series [2] is 88% (active).
On to `CCn1c(SCC(=O)Nc2cc(C(F)(F)F)ccc2Cl)nc2ccccc2c1=O`, for which, in series [1], the inhibition at 1.1 µM is -1%. The inhibition at 11.1 µM in series [2] was 34%.
The matching figures for `O=C(Nc1ccsc1C(=O)NC1CCCCC1)c1ccc(F)cc1`: -3% and 3% (inactive).
In the case of `O=C(Nc1ccc(Cl)cc1C(=O)Nc1ccncc1)c1ccc(Cl)cc1Cl`, in series [1], the inhibition at 1.1 µM turned out to be 4%. For the same compound, in series [2], the inhibition at 11.1 µM came out at 39%.
In the same order, the values of `COc1ccc(C2N(C)c3ccccc3N2C)cc1` are -13% and -5% (inactive).
The matching figures for `COc1cccc(C(=O)NC(c2ccc(C)cc2)c2cc(Cl)c3cccnc3c2O)c1` (centres undefined): 4% and -6% (inactive).
The matching figures for `CCOc1ccc(/C=C/c2nc(=O)c3ccccc3o2)cc1`: 1% and 19% (inactive).
`O=C(Nc1ccccc1O)c1ccc(-c2ccc(Cl)cc2Cl)o1`: in series [1], the inhibition at 1.1 µM stood at 1%. The inhibition at 11.1 µM in series [2] was 3% (inactive).
The matching figures for `O=C(Nc1ccc(F)c(Cl)c1)Nc1ccc(Cl)c(Cl)c1`: -11% and -3% (inactive).
Turning to `CCOC(=O)C1(Cc2ccccc2)CCN(Cc2cccc(OC)c2O)CC1`, the inhibition at 1.1 µM in series [1] turned out to be 18%. For the same compound, the inhibition at 11.1 µM in series [2] was 80% (active).
Regarding `O=C(Cc1ccccc1)NC(c1ccc(Cl)cc1)c1c(O)ccc2ccccc12` (centres undefined), in series [1], the inhibition at 1.1 µM is -2%. Besides, the inhibition at 11.1 µM in series [2] is -1% (inactive).
The matching figures for `Oc1ccc(C(=C(Cl)Cl)c2ccc(O)cc2)cc1`: 7% and 15% (inactive).
Regarding `COc1ccc(C(=O)NC(c2ccccc2Cl)c2cc(Cl)c3cccnc3c2O)cc1` (centres undefined), in series [1], the inhibition at 1.1 µM is 9%. Besides, the inhibition at 11.1 µM in series [2] was 7% (inactive).
`COc1ccc(CN2CCN(Cc3ccccc3)CC2)c(O)c1`: the inhibition at 1.1 µM in series [1] is 15%. Further, the inhibition at 11.1 µM in series [2] is 66% (active).
The matching figures for `CCCCCCc1cc(O)c2c3c(c(=O)oc2c1)CCC(C)C3` (centres undefined): -5% and -7% (inactive).
`CCCc1c(C)nc2ccc(Br)cc2c1O`: the inhibition at 1.1 µM in series [1] was 1%. For the same compound, the inhibition at 11.1 µM in series [2] was 2% (inactive).
The matching figures for `CCCc1c(C)nc2ccccc2c1O`: -17% and 7% (inactive).
In the same order, the values of `OC1CCCCC1C1(NC(=S)Nc2ccccc2)CCCCC1` (centres undefined) are 26% and 51% (active).
As for `COc1ccc(C(=O)C2CC2c2ccc(Cl)cc2)cc1` (centres undefined), in series [1], the inhibition at 1.1 µM was -6%. Further, in series [2], the inhibition at 11.1 µM is 13% (inactive).
In the same order, the values of `CCN(CC)CCCNc1nc(-c2ccc(Cl)cc2)nc2ccccc12` are 8% and 94% (active).
In the same order, the values of `CN1c2ccccc2N(C)C1c1ccc2c(c1)OCO2` are -1% and 17% (inactive).
For `O=C(NCC1Cc2cccc(-c3ccncc3)c2O1)c1csc2c1CCCC2` (centres undefined), in series [1], the inhibition at 1.1 µM was 13%. For the same compound, the inhibition at 11.1 µM in series [2] was 61% (active).
In the same order, the values of `c1ccc(Cn2c(N=Nc3c(Nc4ccccc4)ccc4ccccc34)nc3ccccc32)cc1` are -2% and -2% (inactive).
In the same order, the values of `C=C(C)CCC(C)N1CCC(N2CCC(C(=O)NCCc3ccccc3)CC2)CC1` (centres undefined) are 8% and 71% (active).
Take `Cc1ccc(S(=O)(=O)c2c(COC(=O)c3cccc(C)c3)c(-c3ccccc3)nn2C)cc1`: in series [1], the inhibition at 1.1 µM came to 4%. In addition, the inhibition at 11.1 µM in series [2] was 12% (inactive).
